In US20110104177A1, “HISTONE DEACETYLASE INHIBITORS, COMBINATION THERAPIES AND METHODS OF USE” (THE JOHNS HOPKINS UNIVERSITY, priority 2006, published 2011):

Legend:
SIRT1 = target: T1, SIRT1 (Homo sapiens, UniProt Q96EB6); test: SIRT1 p53-382 IC50 assay; assay type: biochemical
T1 sequence (Q96EB6 1-747): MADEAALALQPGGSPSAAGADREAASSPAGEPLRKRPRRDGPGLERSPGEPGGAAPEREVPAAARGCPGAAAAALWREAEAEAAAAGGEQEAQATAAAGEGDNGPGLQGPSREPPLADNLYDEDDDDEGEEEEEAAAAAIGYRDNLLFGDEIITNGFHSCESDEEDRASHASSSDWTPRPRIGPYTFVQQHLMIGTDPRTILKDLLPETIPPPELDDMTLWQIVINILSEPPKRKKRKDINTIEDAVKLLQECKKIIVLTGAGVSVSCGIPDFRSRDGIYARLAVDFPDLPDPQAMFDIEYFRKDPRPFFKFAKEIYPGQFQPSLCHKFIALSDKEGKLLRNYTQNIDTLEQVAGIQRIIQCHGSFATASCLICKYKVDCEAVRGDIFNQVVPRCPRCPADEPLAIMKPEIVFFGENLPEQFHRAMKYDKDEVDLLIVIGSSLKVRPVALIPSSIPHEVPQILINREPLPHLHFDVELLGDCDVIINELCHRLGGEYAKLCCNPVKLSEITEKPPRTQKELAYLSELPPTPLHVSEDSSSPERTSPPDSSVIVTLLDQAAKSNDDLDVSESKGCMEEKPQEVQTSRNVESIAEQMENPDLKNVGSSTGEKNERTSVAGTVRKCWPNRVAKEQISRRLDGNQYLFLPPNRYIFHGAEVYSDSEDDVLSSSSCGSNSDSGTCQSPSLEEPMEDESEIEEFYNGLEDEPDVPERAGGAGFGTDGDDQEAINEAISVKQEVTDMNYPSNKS

[1] = system: SFRP1 and SFRP2 genes in MCF7 cells; test: RT-PCR re-expression of silenced tumor suppressor genes in MCF7 cells; assay type: cell-based, human; conditions: sirtuin inhibitors, data not shown
Method: (§1) Cell culture and retroviral infection. MDA-MB-231, MCF7, HCT116, SW480 RKO, and Phoenix cells (ATCC, Rockville, Md., United States) were cultured in Dulbecco's modified Eagle's medium supplemented with 10% fetal bovine serum and 1% penicillin/streptomycin (Invitrogen, Carlsbad, Calif., United States). Retroviral infection was performed using either single or multiple rounds of infection. Briefly, Phoenix cells were transfected with either pBabe, pBabe-SIRT1H363Y, pSUPERretro, pSUPERretro-SIRT1-RNAi-1-3 (NM_012238 positions 410, 589, and 1091; Oligo Engine, Seattle, Wash., United States) using Lipofectamine 2000 (Invitrogen). After 48 h of transfection, the medium containing retrovirus was collected, filtered, and supplemented with Polybrene prior to infection of target cells (MDA-MB-231, MCF7, or HCT116). Infected cells were either harvested 24-48 hours later or subjected to selection with 2-3 μg/ml puromycin for a week prior to harvest and analysis.
(§2) RNA and protein preparation and analysis. Total RNA was extracted (Invitrogen) according to the manufacturer's instructions and subjected to reverse transcription followed by both quantitative real-time and semi-quantitative polymerase chain reaction. For quantitative real-time analyses, the QuantiTect SYBR Green PCR kit (Qiagen, Valencia, Calif., United States) was used and the amplification conditions consisted of an initial 10-minutes denaturation step at 95° C., followed by 40 cycles of denaturation at 95° C. for 15 s and annealing and extension for 30 seconds and 60 seconds, respectively. A BioRad iCycler was used (BioRad, Hercules, Calif., United States), and for quantitation the comparative cycle threshold (Ct) method was used, normalizing the Ct values for the indicated gene to the Ct values of GAPDH relative to a control sample. For conventional PCR, at least two independent sets of intron-spanning primers were used for the analysis of multiple genes, such as CRBP1, (NM_002899), E-cadherin, (L34545), SFRP1, (BC036503), SFRP2, (BC008666), and Gata-4 (L34357). For Western blots, cells stably expressing RNAi constructs were harvested in 50 mM Tris-HCl, 1% NP-40, 0.25% sodium deoxycholate, 150 mM NaCl, 50 mM sodium fluoride, 1 mM dithiothreitol, 1 mM AEBSF, 1× Complete protease inhibitor cocktail (Roche, Basel, Switzerland). Protein concentrations were measured by BCA (Pierce Biotechnology, Rockford, Ill., United States). […] On the same blot, β-actin (Sigma, St. Louis, Mo., United States) was probed to ensure equal loading.

[2] = system: SFRP1, SFRP2, E-cadherin, CRBP1 genes in MDA-MB-231 cells; test: RT-PCR re-expression of silenced tumor suppressor genes in MDA-MB-231 cells; assay type: cell-based, human
Method: The panels of FIG. 2 are as follows. […] MDA-MB-231 cells were treated with 15 mM NIA or 300 μM SPT for 21 hours, RNA was isolated, and RT-PCR was performed with intron-spanning primers specific for the indicated genes. Control samples in which no reverse transcriptase was added were analyzed separately, and all were negative for amplification of the indicated genes. […] MDA-MB-231 cells were treated with either 50 nM Aza (+), 100 μM SPT (+) or with both Aza and SPT (++), and 34 hours later, RT-PCR was performed for the indicated genes as described in FIG. 2(A). […] MDA-MB-231 cells were treated with either 0, 50, 100, or 120 μM SPT alone for 34 hours, or the treatment was followed by treatment with 300 nM TSA for 3 hours prior to RNA isolation and RT-PCR analysis. […] MDA-MB-231 cells were infected with low titers of virus for shRNA specific for SIRT1. Aza (100 nM) was added 24 hours prior to RNA isolation, and RT-PCR analysis was performed for the genes SFRP 1, SFRP2, and GAPDH as described in FIG. 2(A). […] As shown in the left panel, MDA-MB-231 cells were infected with a control (vec) or mutant SIRT1 virus (HY), and RT-PCR was performed as described in FIG. 2(A). MDA-MB-231 cells were infected with low titers of pBabe or pBabe-SIRT1H363Y retrovirus and subsequently treated with 100 nM Aza for 24 hours or with 300 nM TSA for 3 hours prior to harvest, and RT-PCR was performed.
as §1, §2

[3] = system: β-catenin-responsive TCF reporter (Wnt pathway) in RKO cells; test: β-catenin-responsive TCF reporter assay; assay type: cell-based, human; conditions: 700 μM SPT for 24 hours
Method: The panels of FIG. 6. […] Error bars indicate standard deviation from the average of three experiments. FIG. 6(B) provides the results obtained from experiments in which RKO cells were transfected with 500 ng of pGL3-OT, a TCF-LEF-responsive reporter, or pGL3-OF, a negative control with a mutated TCF-LEF binding site in combination with 10 ng of pRL-CMV vector. Twenty-four hours post-transfection, cells were treated with either vehicle (DMSO) control or with 700 μM SPT for 24 hours. Firefly luciferase activity was measured and normalized to the Renilla luciferase activities. The experiments shown in FIG. 6(C) were performed as described in FIG. 6(A), in which pooled populations of MDA-MB-231 cells stably expressing RNAi-2 or RNAi-3 were harvested, protein concentrations were determined, and Western blot analysis was performed. An antibody that specifically recognizes the unphosphorylated (active) form of β-catenin was used, and on the same blot, β-actin was probed to ensure equal loading. […]
Reporter assays were performed as described previously using the β-catenin-responsive TCF reporter and the cyclin D1 reporter. […] According to the manufacturer's instructions, Firefly luciferase activity was measured via a luminometer (BD Biosciences) and normalized to the Renilla luciferase activities by using the Dual Luciferase Reporter System (Promega, Madison, Wis., United States).

[4] = system: cyclin-D1 promoter reporter in RKO cells; test: β-catenin-responsive cyclin-D1 promoter reporter assay; assay type: cell-based, human; conditions: SPT treatment, data not shown
Method: Reporter assays were performed as described previously using the β-catenin-responsive TCF reporter and the cyclin D1 reporter. Briefly, prior to transfection, RKO cells were plated in six-well tissue culture dishes and grown until they reached 80%-90% confluence. Cells were transfected with 500 ng of pGL3-OT, a TCF-LEF-responsive reporter, or pGL3-OF, a negative control with a mutated TCF-LEF binding site in combination with 10 ng of pRL-CMV vector. Twenty-four hours post-transfection, cells were treated with either vehicle (DMSO) control or with 700 μM SPT for 24 hours. According to the manufacturer's instructions, Firefly luciferase activity was measured via a luminometer (BD Biosciences) and normalized to the Renilla luciferase activities by using the Dual Luciferase Reporter System (Promega, Madison, Wis., United States).

IC50 (SIRT1)	SMILES	re-expression of epigenetically silenced, hypermethylated TSGs [1]	re-expression of the gene panel, single agent at low dose ([2]; Aza (50 nM) or SPT (50 μM) alone)	re-expression of epigenetically silenced, hypermethylated TSGs incl. CRBP1 ([2]; MDA-MB-231 cells, 15 mM NIA or 300 μM SPT for 21 hours)	reduction in the activation of a β-catenin-responsive TCF reporter construct [3]	reduction in the activation of a β-catenin-responsive cyclin-D1 promoter reporter construct [4]
> 10 µM	O=C(NO)C1CCCc2c1[nH]c1ccc(Cl)cc21 (stereo not drawn) [Compound 7, 6-Chloro-2,3,4,9-tetrahydro-1H-carbazole-1-carboxylic acid hydroxyamide]	–	–	–	–	–
–	O=C1CCc2c(ccc3ccccc23)O1 [SPT, splitomicin, reference compound]	could cause the re-expression	ineffective as single agents	could cause the re-expression	50%	50%
